# Experimental data: patent US11591336B2 (Relay Therapeutics, Inc., priority 2017, dated 2023)
# Where a name gives a salt, the structure may show the parent alone.
# Molecular target: SHP2 (Homo sapiens (Human), UniProt Q06124)
# Assay: SHP2 Allosteric Inhibition Assay (DiFMUP prompt fluorescence)
# Assay type: biochemical
# Details: 0.25 nM SHP2 activated with 0.5 μM peptide IRS1_pY1172(dPEG8)pY1222; substrate DiFMUP 100 μM; 25° C.
row,Structure (SMILES),IC50
1,CO[C@H]1C[C@H](N2CCN(c3n[nH]c4nc(N5CCC6(CC5)CO[C@@H](C)[C@H]6N)cnc34)c3ccc(C#N)cc32)C1 [Compound 470],< 1000 nM
2,CC(=O)N1CC(N2CCN(c3n[nH]c4nc(N5CCC6(CC5)CO[C@@H](C)[C@H]6N)cnc34)c3ccc(C#N)cc32)C1 [Compound 471],< 1000 nM
3,"CC1(N)CCN(c2cnc3c(NCc4ccccc4)n[nH]c3n2)CC1 [Compound 473, 6-(4-amino-4-methyl-1-piperidyl)-N-benzyl-1H-pyrazolo[3,4-b]pyrazin-3-amine]",1000 to 10000 nM
4,CNCCN(C)c1n[nH]c2nc(N3CCC(C)(CN)CC3)cnc12 [Compound 474],≥ 10000 nM
5,"CC1(N)CCN(c2cnc3c(Sc4ccc[nH]c4=O)n[nH]c3n2)CC1 [Compound 475, 3-((6-(4-amino-4-methylpiperidin-1-yl)-1H-pyrazolo[3,4-b]pyrazin-3-yl)thio)pyridin-2(1H)-one]",1000 to 10000 nM
6,"CC1(N)CCN(c2cnc3c(Sc4cc[nH]c(=O)c4Cl)n[nH]c3n2)CC1 [Compound 477, 4-((6-(4-amino-4-methylpiperidin-1-yl)-1H-pyrazolo[3,4-b]pyrazin-3-yl)thio)-3-chloropyridin-2(1H)-one]",< 1000 nM
7,"COc1nccc(Sc2n[nH]c3nc(N4CCC(C)(N)CC4)cnc23)c1Cl [Compound 479, 1-(3-((3-chloro-2-methoxypyridin-4-yl)thio)-1H-pyrazolo[3,4-b]pyrazin-6-yl)-4-methylpiperidin-4-amine]",< 1000 nM
8,CC1(N)CCN(c2cnc3c(Sc4cccnc4C(=O)O)n[nH]c3n2)CC1 [Compound 482],< 1000 nM
9,"N[C@@H]1COCC12CCN(c1cnc3c(Sc4cccnc4C(F)(F)F)n[nH]c3n1)CC2 [Compound 483, (S)-8-(3-((2-(trifluoromethyl)pyridin-3-yl)thio)-1H-pyrazolo[3,4-b]pyrazin-6-yl)-2-oxa-8-azaspiro[4.5]decan-4-amine]",< 1000 nM
10,"Cn1ccc(Sc2n[nH]c3nc(N4CCC(C)(N)CC4)cnc23)c(Cl)c1=O [Compound 484, 4-((6-(4-amino-4-methylpiperidin-1-yl)-1H-pyrazolo[3,4-b]pyrazin-3-yl)thio)-3-chloro-1-methylpyridin-2(1H)-one]",< 1000 nM
11,"NCC1(F)CCN(c2cnc3c(Sc4ccccc4Cl)n[nH]c3n2)CC1 [Compound 485, (1-(3-((2-chlorophenyl)thio)-1H-pyrazolo[3,4-b]pyrazin-6-yl)-4-fluoropiperidin-4-yl)methanamine]",< 1000 nM
12,"CC1(N)CCN(c2cnc3c(Sc4ccncc4)n[nH]c3n2)CC1 [Compound 486, 4-methyl-1-(3-(pyridin-4-ylthio)-1H-pyrazolo[3,4-b]pyrazin-6-yl)piperidin-4-amine]",< 1000 nM
13,"CC(=O)N1CCCC(Sc2n[nH]c3nc(N4CCC(C)(N)CC4)cnc23)C1 (stereo not drawn) [Compound 488, 1-(3-((6-(4-amino-4-methylpiperidin-1-yl)-1H-pyrazolo[3,4-b]pyrazin-3-yl)thio)piperidin-1-yl)ethan-1-one]",≥ 10000 nM
14,"CC1(N)CCN(c2cnc3c(Sc4ccnc(N)c4F)n[nH]c3n2)CC1 [Compound 489, 4-((6-(4-amino-4-methylpiperidin-1-yl)-1H-pyrazolo[3,4-b]pyrazin-3-yl)thio)-3-fluoropyridin-2-amine]",< 1000 nM
15,"CN(c1ccnc(N)c1)c1n[nH]c2nc(N3CCC(C)(N)CC3)cnc12 [Compound 491, N4-[6-(4-amino-4-methyl-1-piperidyl)-1H-pyrazolo[3,4-b]pyrazin-3-yl]-N4-methyl-pyridine-2,4-diamine]",1000 to 10000 nM
16,"CC1(N)CCN(c2cnc3c(SC4CCCNC4)n[nH]c3n2)CC1 (stereo not drawn) [Compound 492, 4-methyl-1-(3-(piperidin-3-ylthio)-1H-pyrazolo[3,4-b]pyrazin-6-yl)piperidin-4-amine]",≥ 10000 nM
17,"CC1(N)CCN(c2cnc3c(Sc4ncnc5ccccc45)n[nH]c3n2)CC1 [Compound 493, 4-methyl-1-(3-(quinazolin-4-ylthio)-1H-pyrazolo[3,4-b]pyrazin-6-yl)piperidin-4-amine]",< 1000 nM
18,"COC(=O)CCc1ncccc1Nc1n[nH]c2nc(N3CCC(C)(N)CC3)cnc12 [Compound 495, methyl 3-[3-[[6-(4-amino-4-methyl-1-piperidyl)-1H-pyrazolo[3,4-b]pyrazin-3-yl]amino]-2-pyridyl]propanoate]",1000 to 10000 nM
19,"CC1(N)CCN(c2cnc3c(Sc4cccn5ccnc45)n[nH]c3n2)CC1 [Compound 496, 1-(3-(imidazo[1,2-a]pyridin-8-ylthio)-1H-pyrazolo[3,4-b]pyrazin-6-yl)-4-methylpiperidin-4-amine hydrochloride]",< 1000 nM

# The next lines start with the values.
row,IC50,Structure (SMILES)
1,< 1000 nM,"C[C@@H]1OCC2(CCN(c3cnc4c(N5CC[C@H](C)c6nc(-c7nnc[nH]7)ccc65)n[nH]c4n3)CC2)[C@@H]1N [Compound 454, (3S,4S)-3-methyl-8-{3-[(4S)-4-methyl-6-(4H-1,2,4-triazol-3-yl)-1,2,3,4-tetrahydro-1,5-naphthyridin-1-yl]-1H-pyrazolo[3,4-b]pyrazin-6-yl}-2-oxa-8-azaspiro[4.5]decan-4-amine]"
2,< 1000 nM,C[C@@H]1OCC2(CCN(c3cnc4c(N5CCCc6c(CS(C)(=O)=O)cccc65)n[nH]c4n3)CC2)[C@@H]1N [Compound 455]
3,< 1000 nM,CC(C)S(=O)(=O)c1cccc2c1CCCN2c1n[nH]c2nc(N3CCC4(CC3)CO[C@@H](C)[C@H]4N)cnc12 [Compound 456]
4,< 1000 nM,C[C@@H]1OCC2(CCN(c3cnc4c(N5CCCc6c5cccc6S(=O)(=O)C5CC5)n[nH]c4n3)CC2)[C@@H]1N [Compound 457]
5,< 1000 nM,C[C@@H]1OCC2(CCN(c3cnc4c(N5CCCc6c(CN7CCOCC7)cccc65)n[nH]c4n3)CC2)[C@@H]1N [Compound 458]
6,< 1000 nM,C[C@@H]1OCC2(CCN(c3cnc4c(N5CCCc6c(CN7CCOC7=O)cccc65)n[nH]c4n3)CC2)[C@@H]1N [Compound 459]
7,< 1000 nM,COCCS(=O)(=O)c1cccc2c1CCCN2c1n[nH]c2nc(N3CCC4(CC3)CO[C@@H](C)[C@H]4N)cnc12 [Compound 460]
8,< 1000 nM,COC(=O)Cc1cccc2c1CCCN2c1n[nH]c2nc(N3CCC4(CC3)CO[C@@H](C)[C@H]4N)cnc12 [Compound 461]
9,< 1000 nM,C=C(C)c1cccc2c1CCCN2c1n[nH]c2nc(N3CCC4(CC3)CO[C@@H](C)[C@H]4N)cnc12 [Compound 462]
10,< 1000 nM,C[C@@H]1OCC2(CCN(c3cnc4c(N5CCCc6c5cccc6S(=O)(=O)C5COC5)n[nH]c4n3)CC2)[C@@H]1N [Compound 464]
11,< 1000 nM,C[C@@H]1OCC2(CCN(c3cnc4c(N5CCCc6c5cccc6S(=O)(=O)c5cnn(C)c5)n[nH]c4n3)CC2)[C@@H]1N [Compound 465]
12,< 1000 nM,CC(=O)N(C)Cc1cccc2c1CCCN2c1n[nH]c2nc(N3CCC4(CC3)CO[C@@H](C)[C@H]4N)cnc12 [Compound 466]
13,< 1000 nM,"N[C@@H]1C[C@H](O)CC12CCN(c1cnc3c(N4CCCc5ncccc54)n[nH]c3n1)CC2 [Compound 467, (2R,4R)-4-amino-8-[3-(1,2,3,4-tetrahydro-1,5-naphthyridin-1-yl)-1H-pyrazolo[3,4-b]pyrazin-6-yl]-8-azaspiro[4.5]decan-2-ol]"
14,< 1000 nM,CO[C@H]1C[C@@H](N2CCN(c3n[nH]c4nc(N5CCC6(CC5)CO[C@@H](C)[C@H]6N)cnc34)c3ccc(C#N)cc32)C1 [Compound 469]
